Experimental findings from patent US10940139B2, “Compounds that interact with the Ras superfamily for the treatment of cancers, inflammatory diseases, rasopathies, and fibrotic disease” (Shy Therapeutics LLC, priority 2017, dated 2021) are described below.

Usually IC50 stands for the concentration needed to halve the response being measured.

In the first assay the target is KRas G12D/Q61H double mutant (Homo sapiens (Human), UniProt P01116, G12D/Q61H). Briefly: Ras GTP binding domain inhibition assay (labeled GTP). Conditions: 20 μM compound. Put shortly: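 Fluorescence read-out of Cy3-/Cy5-GTP remaining bound to nickel-immobilized His-KRas after washes. Protein was coated overnight at 4° C, then exposed to compound for 3 h at room temperature before a 45 min labeled-GTP incubation.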
Sequence of KRas G12D/Q61H double mutant (P01116-2 other isoform, or with tags, fused parts or gaps G12D/Q61H): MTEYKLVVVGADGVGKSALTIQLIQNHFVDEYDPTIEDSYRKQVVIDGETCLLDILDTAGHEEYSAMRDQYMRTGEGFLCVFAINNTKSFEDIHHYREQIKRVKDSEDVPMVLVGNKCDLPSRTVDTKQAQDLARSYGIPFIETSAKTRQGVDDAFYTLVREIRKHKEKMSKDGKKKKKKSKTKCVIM
As for `COc1cccc(OCCn2c(CN3CCCCC3)nc3ccccc32)c1` [drawing 3033], the “% Inhibition at 20 μM KRas G12D Q61H” value is reported as “B (B = 25-50% inhibition)”.

The assay is the same for the next values; noted with them: 20 μM compound; KRas G12D/Q61H double mutant; read-out: % Inhibition at 20 μM of K-Ras mutant and wild-type protein, KRas G12D Q61H.
Regarding `O=C(CSCc1cccc(F)c1)Nc1ccc(-c2ccccc2)cc1`, the inhibition at 20 µM fell in the range of 25 to 50%. `CCN(C(=O)c1cnn(-c2ccccc2)n1)c1ccccc1`: the inhibition at 20 µM is 1 to 25%. With `COc1ccc(-c2cc(NC(=O)C3CC(=O)N(C(C)c4ccccc4)C3)ccc2OC)cc1` (stereo not shown), the inhibition at 20 µM was 1 to 25%. With `COc1ccc(S(=O)(=O)N2CCCCCC2)cc1C(=O)NCCc1ccccc1C`, the inhibition at 20 µM fell in the range of 1 to 25%. For the molecule `COc1cccc(N2CCN(C(=O)c3ccccc3SCC(=O)N3CCc4ccccc43)CC2)c1`, the inhibition at 20 µM is 1 to 25%. Consider `CCCOc1nc2ccccc2nc1N1CCN(c2ccccc2F)CC1`, for which the inhibition at 20 µM was in the range of 25 to 50%. On the same count and under the same terms, the result for `CCc1nc2ccccc2c(C(=O)OCC(=O)c2cc(C)n(CCOC)c2C)c1C` reads 1 to 25%; that for `CC(C)c1ccc(-c2nc(C(=O)NC(C)c3ccccn3)cs2)cc1` (stereo not shown), 25 to 50%. As to `Cc1ccccc1N(CC(=O)NCC1CCCCCC1)S(C)(=O)=O`, the inhibition at 20 µM was 1 to 25%.

For the molecule `COc1ccccc1CN(Cc1cccs1)C(=O)c1ccc(COC(C)C)cc1`, the inhibition at 20 µM fell in the range of 25 to 50%. Regarding `OC(CNC(Cc1ccccc1)c1nc(-c2ccccc2)no1)COCc1ccccc1Cl` (stereo not shown), the inhibition at 20 µM was in the range of 25 to 50%.

With `Cc1n[nH]c(C2CN(C(=O)c3cnc(C)s3)CCO2)n1` (stereo not shown), the inhibition at 20 µM fell in the range of 1 to 25%. Take `CN(C)S(=O)(=O)c1ccc(CN2CCCCCC2/C=C/c2ccccc2)o1` (stereo not shown): the inhibition at 20 µM lay within 25 to 50%.

In the case of `NC(=O)c1cc(-c2csc(N3CCCCC3)n2)ccc1O`, the inhibition at 20 µM was 1 to 25%. In the case of `COC(=O)C(C)CN(Cc1ccc(OCc2ccc([N+](=O)[O-])cc2)c(OC)c1)C1CC1` (stereo not shown), the inhibition at 20 µM lay within 25 to 50%. Turning to `Cc1ccc(C)c(-c2csc(C3CN(Cc4ccccc4)CCO3)n2)c1` (stereo not shown), the inhibition at 20 µM was in the range of 25 to 50%. Regarding `CCOCCOc1ccc(Br)cc1CNCc1cccc(N2CC=CC2)c1`, the inhibition at 20 µM is 25 to 50%.

Staying with this assay, now noted: 20 μM compound; read-out: % Inhibition at 20 μM KRas G12D Q61H.
Take `Cc1cccc(OCCNC(=O)c2cc(S(=O)(=O)N3CCOCC3)ccc2N2CCOCC2)c1`: the inhibition at 20 µM lay within 1 to 25%. On the same count and under the same terms, the value for `CCC(C)c1ccc(S(=O)(=O)N(C)C(c2ccccc2)c2ccccn2)cc1` (stereo not shown) was 25 to 50%. Still for that read-out and setting: the result for `O=C(Nc1nnc(-c2ccccn2)[nH]1)C1CC(c2ccccc2)C1` (stereo not shown) reads 25 to 50%. Turning to `COCCCC1CCN(C(=O)c2csc3c(O)nc(-c4ccccn4)nc23)CC1` [drawing 2677], the inhibition at 20 µM fell in the range of 51 to 75%. As to `COc1cc(C(=O)Nc2nnc(-c3ccccn3)[nH]2)ccc1OCC(N)=O`, the inhibition at 20 µM lay within 25 to 50%.

For the molecule `FC(F)(F)c1ccnc(N2CCN(CCc3ccncc3)CC2)n1`, the inhibition at 20 µM lay within 25 to 50%. As to `O=C(CCNc1ncccn1)Nc1nnc(-c2ccccn2)[nH]1`, the inhibition at 20 µM lay within 25 to 50%.

With `CC(C)Cc1nc(CN(C)CC(=O)Nc2ccc(Cl)c(S(=O)(=O)N3CCOCC3)c2)no1`, the inhibition at 20 µM lay within 1 to 25%.

As to `CN(C)S(=O)(=O)c1ccc(N2CCCC2)c(C(=O)NCCCN2CCCC2=O)c1`, the inhibition at 20 µM is 25 to 50%.

For the molecule `CN(C(=O)c1ccc(COc2ccccc2)o1)C1CCCCC1`, the inhibition at 20 µM is 1 to 25%.

Turning to `O=c1[nH]c(-c2cc(OCC(F)F)ccn2)nc2cc(F)c(F)cc12`, the inhibition at 20 µM is 25 to 50%.

With `COc1cc(C)ccc1OS(=O)(=O)N1CCc2ccccc2C1`, the inhibition at 20 µM was 1 to 25%. As to `CCc1noc(CN(C)c2nc(-c3ccccn3)nc3c2CCC3)n1`, the inhibition at 20 µM lay within 25 to 50%. With `C=CCNC(=O)CN1CCOC(c2nc(-c3ccccc3)cs2)C1` (stereo not shown), the inhibition at 20 µM is 1 to 25%. For the molecule `O=C(c1csc2c(O)nc(-c3ccccn3)nc12)N1CCN(c2ccc(Cl)cc2)CC1`, the inhibition at 20 µM lay in the range of 25 to 50%. With `COc1cc(F)ccc1N1CCN(C(=O)c2csc3c(O)nc(-c4ccccn4)nc23)CC1`, the inhibition at 20 µM lay within 25 to 50%. Same read-out and setting: the value for `O=C(c1csc2c(O)nc(-c3ccccn3)nc12)N1CCN(c2ccc(O)cc2)CC1` was 25 to 50%; that for `COc1ccc(-c2nc(C(=O)NC(C)c3ccccn3)cs2)cc1` (stereo not shown) was 25 to 50%; that for `Nc1nc(-c2ccccn2)nn1C(=O)c1ccc(N2CCNC2=O)cc1` was 25 to 50%. Same read-out and setting: the value for `Cc1nc(-c2ccccn2)nc(NC(C)CO)c1C` (stereo not shown) was 1 to 25%; that for `OCCCSCCNc1nc(-c2ccccn2)nc2c1CCC2` was 1 to 25%. For the molecule `CS(=O)(=O)Nc1nc(-c2ccccn2)nc2scc(-c3ccccc3)c12`, the inhibition at 20 µM is 1 to 25%. Regarding `Oc1nc(-c2ccccn2)nc2c1ncn2-c1ccccn1` [drawing 2698], the inhibition at 20 µM was 25 to 50%. On to `N#Cc1ccc(-c2nnc(CN3CCOc4ccccc4C3)o2)cc1`, for which the inhibition at 20 µM fell in the range of 25 to 50%. For the molecule `CCc1cc(CNc2cc(C)c([N+](=O)[O-])c(C(=O)OC)c2)on1`, the inhibition at 20 µM fell in the range of 25 to 50%.

With `CCOCCCNC(=O)c1cc(S(=O)(=O)N(CC)CC)ccc1NCCOC`, the inhibition at 20 µM fell in the range of 1 to 25%. As to `CCN(C(=O)c1ccc(COc2ccccc2F)o1)c1ccccc1C`, the inhibition at 20 µM was 1 to 25%.

For `CCc1c(C)sc2[nH]c(-c3ccccn3)nc(=O)c12`, the inhibition at 20 µM was in the range of 25 to 50%. On the same count and under the same terms, the result for `Cc1nc(-c2ccccn2)nc(NCCS(C)(=O)=O)c1C` reads 25 to 50%. In the case of `Cc1ccc(S(=O)(=O)NC(c2ccccc2)c2ccccn2)c(Cl)c1` (stereo not shown), the inhibition at 20 µM was in the range of 25 to 50%. For the molecule `O=C(Nc1nnc(-c2ccccn2)[nH]1)C1CCS(=O)(=O)C1` (stereo not shown), the inhibition at 20 µM fell in the range of 25 to 50%. Still for that read-out and setting: the result for `CN(Cc1ccc(OCc2ccccn2)cc1)Cc1ccccc1OC(F)(F)F` reads 1 to 25%. As to `Cc1nc(-c2ccccn2)sc1C(=O)NCCNc1ncccn1`, the inhibition at 20 µM was 1 to 25%. Still for that read-out and setting: the value for `O=C(Cc1ccc2c(c1)CCCC2)Nc1nnc(-c2ccccn2)[nH]1` was 25 to 50%; that for `O=C(c1ccc(COc2ccccc2F)o1)N1CCOc2ccccc21` was 1 to 25%; that for `O=C(Nc1nnc(-c2ccccn2)[nH]1)c1cccc(Nc2ncccn2)c1` was 1 to 25%. The same measure, in the same setting: the value for `COC(=O)c1ccc2c(=O)[nH]c(-c3ccccn3)nc2c1` was 25 to 50%; that for `Brc1csc2nc(-c3ccccn3)nc(N3CCOCC3)c12` [drawing 2701] was 1 to 25%; that for `CC(C)Cn1cnnc1C1CCCN1c1ccc(C#N)c(C(F)(F)F)c1` (stereo not shown) was 25 to 50%. For `CS(=O)(=O)c1cccc(C(=O)N2CCCc3c(O)nc(-c4ccccn4)nc32)c1` [drawing 2647], the inhibition at 20 µM was in the range of 51 to 75%. On to `CN1CC(Nc2nc(-c3ccccn3)nc3c2CCC3)CCC1=O` (stereo not shown), for which the inhibition at 20 µM was 25 to 50%.

`Cc1nc(-c2ccccn2)sc1C(=O)NCCNc1cnccn1`: the inhibition at 20 µM was 25 to 50%. Turning to `O=C(c1csc2c(O)nc(-c3ccccn3)nc12)N1CCOC(c2cccc(O)c2)C1` (stereo not shown), the inhibition at 20 µM lay within 51 to 75%. On to `Nc1nc(O)c2scc(-c3ccccc3Cl)c2n1` [drawing 2693], for which the inhibition at 20 µM was in the range of 1 to 25%.

The same assay, now with this note: 20 μM; read-out: KRas G12D Q61H % Inh.
For `O=C(Nc1nnc(-c2ccccn2)[nH]1)C1COc2ccccc2C1` (stereo not shown) [drawing 2490], the inhibition at 20 µM was 51 to 75%. Same read-out and setting: the result for `Cc1cccc(C)c1OCCOC(=O)c1ccccc1SCCOc1c(C)cccc1C` [drawing 2636] reads 51 to 75%; that for `O=C(Cc1ccccc1F)Nc1nnc(-c2ccccn2)[nH]1`, 51 to 75%. Regarding `COC(=O)C(C)CN(Cc1cc(Br)ccc1[N+](=O)[O-])C1CC1` (stereo not shown) [drawing 2629], the inhibition at 20 µM lay in the range of 25 to 50%. `CCCOc1ccc2ccccc2c1CN(C)S(=O)(=O)N1CC(C)OC(C)C1` (stereo not shown) [drawing 2626]: the inhibition at 20 µM was in the range of 25 to 50%. As to `Cn1cc(-c2nc(C(=O)Nc3nnc(-c4ccccn4)[nH]3)cs2)cn1` [drawing 2474], the inhibition at 20 µM was in the range of 76 to 100%. Turning to `O=C(Nc1nnc(-c2ccccn2)[nH]1)C1CCCC1` [drawing 2489], the inhibition at 20 µM was in the range of 51 to 75%.

With `Cc1ccc(O)c(CN(C)Cc2nccn2Cc2ccccc2)n1` [drawing 2615], the inhibition at 20 µM fell in the range of 51 to 75%. For `Cc1nc(-c2ccccn2)sc1C(=O)Nc1nnc(-c2ccccn2)[nH]1` [drawing 2532], the inhibition at 20 µM lay in the range of 51 to 75%. On to `CC(C)COC(C)C(=O)Nc1nnc(-c2ccccn2)[nH]1` (stereo not shown) [drawing 2505], for which the inhibition at 20 µM lay within 51 to 75%. Turning to `CC(Oc1cccc(C#N)c1)C(=O)Nc1nnc(-c2ccccn2)[nH]1` (stereo not shown) [drawing 2511], the inhibition at 20 µM fell in the range of 51 to 75%. On to `CC(C)NC(=O)Nc1cccc(C(=O)Nc2nnc(-c3ccccn3)[nH]2)c1` [drawing 2451], for which the inhibition at 20 µM was in the range of 51 to 75%. On the same count and under the same terms, the value for `N#CC1(c2ccc(C(=O)N3CCCC3CO)cc2)CC1` (stereo not shown) [drawing 2632] was 76 to 100%. For the molecule `CC(C)c1noc(CCC(=O)Nc2nnc(-c3ccccn3)[nH]2)n1` [drawing 2486], the inhibition at 20 µM was 51 to 75%.

For the molecule `O=C(CCCc1nc2ccccc2s1)Nc1nnc(-c2ccccn2)[nH]1`, the inhibition at 20 µM is 51 to 75%.

For the molecule `O=C(Cc1ccccc1)NCCC(=O)Nc1nnc(-c2ccccn2)[nH]1` [drawing 2495], the inhibition at 20 µM fell in the range of 51 to 75%.

In the case of `CC(C)N(Cc1nnc(-c2ccc(Cl)cc2Cl)o1)c1ccc(F)cc1`, the inhibition at 20 µM was in the range of 25 to 50%. Same read-out and setting: the result for `Cc1cccc(OCC(=O)Nc2nnc(-c3ccccn3)[nH]2)c1` [drawing 2555] reads 51 to 75%; that for `CSc1nc(C2CC2)cc(C(=O)NCCc2ccc(S(=O)(=O)NC(=O)c3cc(C4CC4)nc(SC)c3C#N)cc2)c1C#N` [drawing 2634], 51 to 75%.

Staying with this assay, now noted: at 20 μM; read-out: KRas G12D Q61H % Inh.
Consider `COC(=O)c1c(C)sc2nc(-c3ccccn3)nc(N)c12` [drawing 3804], for which the inhibition at 20 µM was 51 to 75%.

Still in this assay, the particulars now being: read-out: KRas G12D Q61H IC50.
Consider `CC(Oc1cccc(C#N)c1)C(=O)Nc1nnc(-c2ccccn2)[nH]1` (stereo not shown) [drawing 2511], for which the IC50 was under 5 µM.

In the case of `Cc1cccc(OCC(=O)Nc2nnc(-c3ccccn3)[nH]2)c1` [drawing 2555], the IC50 fell in the range of 5 to 10 µM.

Staying with this assay, now noted: serial dilution; read-out: KRas G12D Q61H (classes E-H, IC50).
Regarding `CS(=O)(=O)c1cccc(C(=O)N2CCCc3c(O)nc(-c4ccccn4)nc32)c1` [drawing 2647], the IC50 is 5 to 10 µM.
